Patent US9486506B2 (Novo Nordisk A/S, priority 2011, dated 2016)
Numbered stars: 1 amine (or outer) side, 2 acyl side, 3 side chain; on linkers, the order of the positions; unused ones are H or OH. Side chains are listed from the residue outwards. Peptide text beside a SMILES is read from it. * marks the point of attachment. C18 diacid = O=C(O)CCCCCCCCCCCCCCCCC(=O)*; γGlu = O=C(O)[C@H](CCC(=O)[*:2])N[*:1]; AEEA = NCCOCCOCC(=O)O

The compounds below were run against T1, glucagon receptor (Homo sapiens, UniProt P47871) (assay: Assay (I) Glucagon activity (cAMP biosensor, FLIPR)).
T1 construct: expressed in transfected cells
T1 sequence (P47871 26-477): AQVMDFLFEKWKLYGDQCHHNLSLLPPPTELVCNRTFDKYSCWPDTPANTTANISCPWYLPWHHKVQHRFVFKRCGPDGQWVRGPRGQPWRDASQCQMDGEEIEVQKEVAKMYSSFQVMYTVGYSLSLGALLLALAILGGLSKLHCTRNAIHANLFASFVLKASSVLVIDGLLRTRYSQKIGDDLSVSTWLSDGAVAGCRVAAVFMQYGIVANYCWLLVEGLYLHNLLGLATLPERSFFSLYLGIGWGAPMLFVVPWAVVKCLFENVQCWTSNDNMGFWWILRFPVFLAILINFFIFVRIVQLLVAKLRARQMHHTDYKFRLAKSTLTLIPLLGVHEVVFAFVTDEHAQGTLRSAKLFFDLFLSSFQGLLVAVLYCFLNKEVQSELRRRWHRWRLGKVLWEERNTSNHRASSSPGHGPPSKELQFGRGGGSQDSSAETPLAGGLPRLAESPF
Assay type: cell-based
Method: The cells (14000 per well) were incubated (37° C., 5% CO2) overnight in 384-well plates. Next day the cells were loaded with a calcium responsive dye that only distributed into the cytoplasm. Probenecid, an inhibitor of the organic anion transporter, was added to prevent the dye from leaving the cell. A PDE inhibitor was added to prevent formatted cAMP from being degraded. The plates were placed into a […] and the glucagon analogues were added. End point data were collected after 6 minutes. An increase in intracellular cAMP was proportional to an increased in calcium concentrations in the cytoplasm. When calcium was bound the dry a fluorescence signal was generated. EC50-values were calculated in Prism5.

Question: Which EC50 does the source give for CC(C)C[C@H](NC(=O)[C@H](Cc1ccc(O)cc1)NC(=O)[C@H](CCCCN)NC(=O)[C@H](CO)NC(=O)[C@H](Cc1ccc(O)cc1)NC(=O)[C@H](CC(=O)O)NC(=O)[C@H](CO)NC(=O)[C@@H](NC(=O)[C@H](Cc1ccccc1)NC(=O)[C@@H](NC(=O)CNC(=O)[C@H](CCC(N)=O)NC(=O)[C@H](CO)NC(=O)[C@@H](N)Cc1c[nH]cn1)[C@@H](C)O)[C@@H](C)O)C(=O)N[C@@H](CCC(=O)O)C(=O)N[C@@H](CO)C(=O)N[C@@H](CCCNC(=N)N)C(=O)N[C@@H](CCCNC(=N)N)C(=O)N[C@@H](C)C(=O)N[C@@H](CCC(N)=O)C(=O)N[C@@H](CC(=O)O)C(=O)N[C@@H](Cc1ccccc1)C(=O)N[C@H](C(=O)N[C@@H](CCCCNC(=O)CC[C@H](NC(=O)CC[C@H](NC(=O)COCCOCCNC(=O)COCCOCCNC(=O)CC[C@H](NC(=O)CCCCCCCCCCCCCCCCC(=O)O)C(=O)O)C(=O)O)C(=O)O)C(=O)N[C@@H](Cc1c[nH]c2ccccc12)C(=O)N[C@@H](CC(C)C)C(=O)N[C@@H](CCC(=O)O)C(=O)N[C@@H](CO)C(=O)N[C@H](C(=O)O)[C@@H](C)O)C(C)C [Example 59, N^ε24-[(4S)-4-carboxy-4-[[(4S)-4-carboxy-4-[[2-[2-[2-[[2-[2-[2-[[(4S)-4-carboxy-4-(17-carboxyheptadecanoylamino)butanoyl]amino]ethoxy]ethoxy]acetyl]amino]ethoxy]ethoxy]acetyl]amino]butanoyl]amino]butanoyl]-[Glu15,Lys24,Glu27,Ser28]-Glucagon] here?
Answer: Its EC50 is 0.682 nM.

Question: How did the EC50 turn out when CC(C)C[C@H](NC(=O)[C@H](Cc1ccc(O)cc1)NC(=O)[C@H](CCCNC(=N)N)NC(=O)[C@H](CO)NC(=O)[C@H](Cc1ccc(O)cc1)NC(=O)[C@H](CC(=O)O)NC(=O)[C@H](CO)NC(=O)[C@@H](NC(=O)[C@H](Cc1ccccc1)NC(=O)[C@@H](NC(=O)CNC(=O)[C@H](CCC(N)=O)NC(=O)[C@H](CO)NC(=O)[C@@H](N)Cc1c[nH]cn1)[C@@H](C)O)[C@@H](C)O)C(=O)N[C@@H](CCC(=O)O)C(=O)N[C@@H](CO)C(=O)N[C@@H](CCCNC(=N)N)C(=O)N[C@@H](CCCNC(=N)N)C(=O)N[C@@H](C)C(=O)N[C@@H](CCC(N)=O)C(=O)N[C@@H](CCC(=O)O)C(=O)N[C@@H](Cc1ccccc1)C(=O)N[C@H](C(=O)N[C@@H](CCCCNC(=O)CC[C@H](NC(=O)CC[C@H](NC(=O)COCCOCCNC(=O)COCCOCCNC(=O)CC[C@H](NC(=O)CCCCCCCCCCCCCCCCC(=O)O)C(=O)O)C(=O)O)C(=O)O)C(=O)N[C@@H](Cc1c[nH]c2ccccc12)C(=O)N[C@@H](CC(C)C)C(=O)N[C@@H](CCC(=O)O)C(=O)N[C@@H](CO)C(=O)N[C@H](C(=O)O)[C@@H](C)O)C(C)C [Example 55, N^ε24-[(4S)-4-carboxy-4-[[(4S)-4-carboxy-4-[[2-[2-[2-[[2-[2-[2-[[(4S)-4-carboxy-4-(17-carboxyheptadecanoylamino)butanoyl]amino]ethoxy]ethoxy]acetyl]amino]ethoxy]ethoxy]acetyl]amino]butanoyl]amino]butanoyl]-[Arg12,Glu15,Glu21,Lys24,Glu27,Ser28]-Glucagon] (H-HSQGTFTSDYSRYLESRRAQEFVK([γGlu-γGlu-AEEA-AEEA-γGlu-C18 diacid])WLEST-OH) was run?
Answer: The EC50 was 1.09 nM.

Question: CC(C)C[C@H](NC(=O)[C@H](CC(N)=O)NC(=O)[C@H](CC(C)C)NC(=O)[C@H](CC(C)C)NC(=O)[C@H](Cc1c[nH]c2ccccc12)NC(=O)[C@H](CCCCNC(=O)CC[C@H](NC(=O)COCCOCCNC(=O)COCCOCCNC(=O)CC[C@H](NC(=O)CCCCCCCCCCCCCCCCC(=O)O)C(=O)O)C(=O)O)NC(=O)[C@@H](NC(=O)[C@H](Cc1ccccc1)NC(=O)[C@H](CCC(=O)O)NC(=O)[C@H](CCC(N)=O)NC(=O)[C@H](C)NC(=O)[C@H](CCCNC(=N)N)NC(=O)[C@H](CCCNC(=N)N)NC(=O)[C@@H](NC(=O)[C@H](CC(=O)O)NC(=O)[C@H](CC(C)C)NC(=O)[C@H](Cc1ccc(O)cc1)NC(=O)[C@H](CCCCN)NC(=O)[C@H](CO)NC(=O)[C@H](Cc1ccc(O)cc1)NC(=O)[C@H](CC(=O)O)NC(=O)[C@H](CO)NC(=O)[C@@H](NC(=O)[C@H](Cc1ccccc1)NC(=O)[C@@H](NC(=O)CNC(=O)[C@H](CCC(N)=O)NC(=O)[C@H](CO)NC(=O)[C@@H](N)Cc1c[nH]cn1)[C@@H](C)O)[C@@H](C)O)[C@@H](C)O)C(C)C)C(=O)O [Example 37, N^ε24-[(4S)-4-carboxy-4-[[2-[2-[2-[[2-[2-[2-[[(4S)-4-carboxy-4-(17-carboxyheptadecanoylamino)butanoyl]amino]ethoxy]ethoxy]acetyl]amino]ethoxy]ethoxy]acetyl]amino]butanoyl]-[Thr16,Glu21,Lys24,Leu27,Leu29]-Glucagon] (H-HSQGTFTSDYSKYLDTRRAQEFVK([γGlu-AEEA-AEEA-γGlu-C18 diacid])WLLNL-OH) was tested. Which EC50 did it give?
Answer: Its EC50 is 0.183 nM.

Question: How did the EC50 turn out when CC(C)C[C@H](NC(=O)[C@H](CC(=O)O)NC(=O)[C@H](CC(C)C)NC(=O)[C@H](Cc1ccc(O)cc1)NC(=O)[C@H](CCCNC(=N)N)NC(=O)[C@H](CO)NC(=O)[C@H](Cc1ccc(O)cc1)NC(=O)[C@H](CC(=O)O)NC(=O)[C@H](CO)NC(=O)[C@@H](NC(=O)[C@H](Cc1ccccc1)NC(=O)[C@@H](NC(=O)CNC(=O)[C@H](CCC(N)=O)NC(=O)[C@H](CO)NC(=O)[C@@H](N)Cc1c[nH]cn1)[C@@H](C)O)[C@@H](C)O)C(=O)N[C@@H](CCCNC(=N)N)C(=O)N[C@@H](CCCNC(=N)N)C(=O)N[C@@H](C)C(=O)N[C@@H](CCC(N)=O)C(=O)N[C@@H](CC(=O)O)C(=O)N[C@@H](Cc1ccccc1)C(=O)N[C@H](C(=O)N[C@@H](CCCCNC(=O)CC[C@H](NC(=O)CC[C@H](NC(=O)COCCOCCNC(=O)COCCOCCNC(=O)CC[C@H](NC(=O)CCCCCCCCCCCCCCCCC(=O)O)C(=O)O)C(=O)O)C(=O)O)C(=O)N[C@@H](Cc1c[nH]c2ccccc12)C(=O)N[C@@H](CC(C)C)C(=O)N[C@@H](CC(C)C)C(=O)N[C@@H](CCC(N)=O)C(=O)N[C@H](C(=O)O)[C@@H](C)O)C(C)C [Example 48, N^ε24-[(4S)-4-carboxy-4-[[(4S)-4-carboxy-4-[[2-[2-[2-[[2-[2-[2-[[(4S)-4-carboxy-4-(17-carboxyheptadecanoylamino)butanoyl]amino]ethoxy]ethoxy]acetyl]amino]ethoxy]ethoxy]acetyl]amino]butanoyl]amino]butanoyl]-[Arg12,Leu16,Lys24,Leu27,Gln28]-Glucagon] (H-HSQGTFTSDYSRYLDLRRAQDFVK([γGlu-γGlu-AEEA-AEEA-γGlu-C18 diacid])WLLQT-OH) was run?
Answer: The EC50 was 0.204 nM.

Question: With CC(C)C[C@H](NC(=O)[C@H](Cc1ccc(O)cc1)NC(=O)[C@H](CCCCN)NC(=O)[C@H](CO)NC(=O)[C@H](Cc1ccc(O)cc1)NC(=O)[C@H](CC(=O)O)NC(=O)[C@H](CO)NC(=O)[C@@H](NC(=O)[C@H](Cc1ccccc1)NC(=O)[C@@H](NC(=O)CNC(=O)[C@H](Cc1c[nH]cn1)NC(=O)[C@H](CO)NC(=O)[C@@H](N)Cc1c[nH]cn1)[C@@H](C)O)[C@@H](C)O)C(=O)N[C@@H](CC(=O)O)C(=O)N[C@@H](CO)C(=O)N[C@@H](CCCNC(=N)N)C(=O)N[C@@H](CCCNC(=N)N)C(=O)N[C@@H](C)C(=O)N[C@@H](CCC(N)=O)C(=O)N[C@@H](CC(=O)O)C(=O)N[C@@H](Cc1ccccc1)C(=O)N[C@H](C(=O)N[C@@H](CCCCNC(=O)CC[C@H](NC(=O)CC[C@H](NC(=O)COCCOCCNC(=O)COCCOCCNC(=O)CC[C@H](NC(=O)CCCCCCCCCCCCCCCCC(=O)O)C(=O)O)C(=O)O)C(=O)O)C(=O)N[C@@H](Cc1c[nH]c2ccccc12)C(=O)N[C@@H](CC(C)C)C(=O)N[C@@H](CC(C)C)C(=O)N[C@@H](CC(N)=O)C(=O)N[C@H](C(=O)O)[C@@H](C)O)C(C)C [Example 5, N^ε24-[(4S)-4-carboxy-4-[[(4S)-4-carboxy-4-[[2-[2-[2-[[2-[2-[2-[[(4S)-4-carboxy-4-(17-carboxyheptadecanoylamino)butanoyl]amino]ethoxy]ethoxy]acetyl]amino]ethoxy]ethoxy]acetyl]amino]butanoyl]amino]butanoyl]-[His^3,Lys^24,Leu^27]-Glucagon] as the compound, how does the EC50 read?
Answer: Its EC50 is 0.105 nM.

Question: For CC[C@H](C)[C@H](NC(=O)[C@H](CC(=O)O)NC(=O)[C@H](CC(C)C)NC(=O)[C@H](Cc1ccc(O)cc1)NC(=O)[C@H](CCCCN)NC(=O)[C@H](CO)NC(=O)[C@H](Cc1ccc(O)cc1)NC(=O)[C@H](CC(=O)O)NC(=O)[C@H](CO)NC(=O)[C@@H](NC(=O)[C@H](Cc1ccccc1)NC(=O)[C@@H](NC(=O)CNC(=O)[C@H](CCC(N)=O)NC(=O)[C@H](CO)NC(=O)[C@@H](N)Cc1c[nH]cn1)[C@@H](C)O)[C@@H](C)O)C(=O)N[C@@H](CCCNC(=N)N)C(=O)N[C@@H](CCCNC(=N)N)C(=O)N[C@@H](C)C(=O)N[C@@H](CCC(N)=O)C(=O)N[C@@H](CC(=O)O)C(=O)N[C@@H](Cc1ccccc1)C(=O)N[C@H](C(=O)N[C@@H](CCCCNC(=O)CC[C@H](NC(=O)CC[C@H](NC(=O)COCCOCCNC(=O)COCCOCCNC(=O)CC[C@H](NC(=O)CCCCCCCCCCCCCCCCC(=O)O)C(=O)O)C(=O)O)C(=O)O)C(=O)N[C@@H](Cc1c[nH]c2ccccc12)C(=O)N[C@@H](CC(C)C)C(=O)N[C@@H](CC(C)C)C(=O)N[C@@H](CC(N)=O)C(=O)N[C@H](C(=O)O)[C@@H](C)O)C(C)C [Example 8, N^ε24-[(4S)-4-carboxy-4-[[(4S)-4-carboxy-4-[[2-[2-[2-[[2-[2-[2-[[(4S)-4-carboxy-4-(17-carboxyheptadecanoylamino)butanoyl]amino]ethoxy]ethoxy]acetyl]amino]ethoxy]ethoxy]acetyl]amino]butanoyl]amino]butanoyl]-[Ile^16,Lys^24,Leu^27]-Glucagon], which EC50 is on record?
Answer: The EC50 was 0.081 nM.
